{
  "source": "the NIST ThermoML archive (doi:10.1021/je034180e)",
  "settings": "Liquid",
  "note": "± gives the expanded uncertainty stated by the source.",
  "data": [
    {"smiles": "CC(C)C(=O)O", "note": "[2-methylpropanoic acid]", "values": [
      {"measurement": "vapor or sublimation pressure", "setting": "375.21 K", "result": "14.55 ± 0.57", "unit": "kPa"},
      {"measurement": "vapor or sublimation pressure", "setting": "382.14 K", "result": "19.58 ± 0.59", "unit": "kPa"},
      {"measurement": "vapor or sublimation pressure", "setting": "391.77 K", "result": "29.65 ± 0.64", "unit": "kPa"},
      {"measurement": "vapor or sublimation pressure", "setting": "399.43 K", "result": "39.72 ± 0.7", "unit": "kPa"},
      {"measurement": "vapor or sublimation pressure", "setting": "405.44 K", "result": "49.79 ± 0.75", "unit": "kPa"},
      {"measurement": "vapor or sublimation pressure", "setting": "410.75 K", "result": "59.85 ± 0.8", "unit": "kPa"},
      {"measurement": "vapor or sublimation pressure", "setting": "415.51 K", "result": "69.92 ± 0.85", "unit": "kPa"},
      {"measurement": "vapor or sublimation pressure", "setting": "419.77 K", "result": "79.99 ± 0.9", "unit": "kPa"},
      {"measurement": "vapor or sublimation pressure", "setting": "423.36 K", "result": "90.07 ± 0.95", "unit": "kPa"},
      {"measurement": "vapor or sublimation pressure", "setting": "424.86 K", "result": "95.1 ± 0.98", "unit": "kPa"},
      {"measurement": "vapor or sublimation pressure", "setting": "426.16 K", "result": "100.59 ± 1", "unit": "kPa"}
    ]},
    {"smiles": "CC(C)CC(=O)O", "note": "[3-methylbutanoic acid]", "values": [
      {"measurement": "vapor or sublimation pressure", "setting": "396.05 K", "result": "14.56 ± 0.57", "unit": "kPa"},
      {"measurement": "vapor or sublimation pressure", "setting": "402.9 K", "result": "19.59 ± 0.59", "unit": "kPa"},
      {"measurement": "vapor or sublimation pressure", "setting": "412.87 K", "result": "29.65 ± 0.64", "unit": "kPa"},
      {"measurement": "vapor or sublimation pressure", "setting": "420.7 K", "result": "39.72 ± 0.7", "unit": "kPa"},
      {"measurement": "vapor or sublimation pressure", "setting": "427.18 K", "result": "49.78 ± 0.75", "unit": "kPa"},
      {"measurement": "vapor or sublimation pressure", "setting": "432.62 K", "result": "59.86 ± 0.8", "unit": "kPa"},
      {"measurement": "vapor or sublimation pressure", "setting": "437.44 K", "result": "69.92 ± 0.85", "unit": "kPa"},
      {"measurement": "vapor or sublimation pressure", "setting": "441.6 K", "result": "79.99 ± 0.9", "unit": "kPa"},
      {"measurement": "vapor or sublimation pressure", "setting": "445.16 K", "result": "90.07 ± 0.95", "unit": "kPa"},
      {"measurement": "vapor or sublimation pressure", "setting": "446.6 K", "result": "95.1 ± 0.98", "unit": "kPa"},
      {"measurement": "vapor or sublimation pressure", "setting": "447.92 K", "result": "100.08 ± 1", "unit": "kPa"}
    ]},
    {"smiles": "CCCC(=O)O", "note": "[butanoic acid]", "values": [
      {"measurement": "vapor or sublimation pressure", "setting": "383.55 K", "result": "14.56 ± 0.57", "unit": "kPa"},
      {"measurement": "vapor or sublimation pressure", "setting": "390.87 K", "result": "19.58 ± 0.59", "unit": "kPa"},
      {"measurement": "vapor or sublimation pressure", "setting": "401.32 K", "result": "29.65 ± 0.64", "unit": "kPa"},
      {"measurement": "vapor or sublimation pressure", "setting": "409 K", "result": "39.72 ± 0.7", "unit": "kPa"},
      {"measurement": "vapor or sublimation pressure", "setting": "415 K", "result": "49.79 ± 0.75", "unit": "kPa"},
      {"measurement": "vapor or sublimation pressure", "setting": "420.22 K", "result": "59.86 ± 0.8", "unit": "kPa"},
      {"measurement": "vapor or sublimation pressure", "setting": "424.81 K", "result": "69.92 ± 0.85", "unit": "kPa"},
      {"measurement": "vapor or sublimation pressure", "setting": "428.96 K", "result": "79.99 ± 0.9", "unit": "kPa"},
      {"measurement": "vapor or sublimation pressure", "setting": "432.61 K", "result": "90.07 ± 0.95", "unit": "kPa"},
      {"measurement": "vapor or sublimation pressure", "setting": "434.51 K", "result": "95.1 ± 0.97", "unit": "kPa"},
      {"measurement": "vapor or sublimation pressure", "setting": "436.05 K", "result": "100.04 ± 1", "unit": "kPa"}
    ]},
    {"smiles": "CCCCCCC(=O)O", "note": "[heptanoic acid]", "values": [
      {"measurement": "vapor or sublimation pressure", "setting": "413.48 K", "result": "4.7 ± 0.52", "unit": "kPa"},
      {"measurement": "vapor or sublimation pressure", "setting": "426.48 K", "result": "8.63 ± 0.54", "unit": "kPa"},
      {"measurement": "vapor or sublimation pressure", "setting": "435.07 K", "result": "12.56 ± 0.56", "unit": "kPa"},
      {"measurement": "vapor or sublimation pressure", "setting": "441.33 K", "result": "16.57 ± 0.58", "unit": "kPa"},
      {"measurement": "vapor or sublimation pressure", "setting": "446.4 K", "result": "20.63 ± 0.6", "unit": "kPa"},
      {"measurement": "vapor or sublimation pressure", "setting": "451 K", "result": "24.65 ± 0.62", "unit": "kPa"},
      {"measurement": "vapor or sublimation pressure", "setting": "453.8 K", "result": "27.67 ± 0.63", "unit": "kPa"}
    ]},
    {"smiles": "CCCCCC(=O)O", "note": "[hexanoic acid]", "values": [
      {"measurement": "vapor or sublimation pressure", "setting": "413.4 K", "result": "9.52 ± 0.54", "unit": "kPa"},
      {"measurement": "vapor or sublimation pressure", "setting": "422.88 K", "result": "14.56 ± 0.57", "unit": "kPa"},
      {"measurement": "vapor or sublimation pressure", "setting": "429.92 K", "result": "19.59 ± 0.59", "unit": "kPa"},
      {"measurement": "vapor or sublimation pressure", "setting": "435.62 K", "result": "24.63 ± 0.62", "unit": "kPa"},
      {"measurement": "vapor or sublimation pressure", "setting": "440.03 K", "result": "29.64 ± 0.64", "unit": "kPa"},
      {"measurement": "vapor or sublimation pressure", "setting": "444.26 K", "result": "34.68 ± 0.67", "unit": "kPa"},
      {"measurement": "vapor or sublimation pressure", "setting": "447.88 K", "result": "39.72 ± 0.69", "unit": "kPa"},
      {"measurement": "vapor or sublimation pressure", "setting": "451.43 K", "result": "44.75 ± 0.72", "unit": "kPa"}
    ]},
    {"smiles": "CCCCC(=O)O", "note": "[pentanoic acid]", "values": [
      {"measurement": "vapor or sublimation pressure", "setting": "403.15 K", "result": "14.56 ± 0.57", "unit": "kPa"},
      {"measurement": "vapor or sublimation pressure", "setting": "410.71 K", "result": "19.59 ± 0.59", "unit": "kPa"},
      {"measurement": "vapor or sublimation pressure", "setting": "417.07 K", "result": "24.63 ± 0.62", "unit": "kPa"},
      {"measurement": "vapor or sublimation pressure", "setting": "422.19 K", "result": "29.65 ± 0.65", "unit": "kPa"},
      {"measurement": "vapor or sublimation pressure", "setting": "430.08 K", "result": "39.72 ± 0.7", "unit": "kPa"},
      {"measurement": "vapor or sublimation pressure", "setting": "436.48 K", "result": "49.78 ± 0.75", "unit": "kPa"},
      {"measurement": "vapor or sublimation pressure", "setting": "441.89 K", "result": "59.85 ± 0.8", "unit": "kPa"},
      {"measurement": "vapor or sublimation pressure", "setting": "446.45 K", "result": "69.92 ± 0.85", "unit": "kPa"},
      {"measurement": "vapor or sublimation pressure", "setting": "448.48 K", "result": "74.96 ± 0.88", "unit": "kPa"},
      {"measurement": "vapor or sublimation pressure", "setting": "450.35 K", "result": "79.99 ± 0.9", "unit": "kPa"},
      {"measurement": "vapor or sublimation pressure", "setting": "451.92 K", "result": "85.03 ± 0.93", "unit": "kPa"}
    ]},
    {"smiles": "CCC(=O)O", "note": "[propanoic acid]", "values": [
      {"measurement": "vapor or sublimation pressure", "setting": "361.52 K", "result": "14.56 ± 0.57", "unit": "kPa"},
      {"measurement": "vapor or sublimation pressure", "setting": "368.37 K", "result": "19.58 ± 0.59", "unit": "kPa"},
      {"measurement": "vapor or sublimation pressure", "setting": "378.95 K", "result": "29.65 ± 0.64", "unit": "kPa"},
      {"measurement": "vapor or sublimation pressure", "setting": "386.74 K", "result": "39.73 ± 0.7", "unit": "kPa"},
      {"measurement": "vapor or sublimation pressure", "setting": "392.93 K", "result": "49.79 ± 0.75", "unit": "kPa"},
      {"measurement": "vapor or sublimation pressure", "setting": "398.09 K", "result": "59.86 ± 0.8", "unit": "kPa"},
      {"measurement": "vapor or sublimation pressure", "setting": "402.65 K", "result": "69.92 ± 0.85", "unit": "kPa"},
      {"measurement": "vapor or sublimation pressure", "setting": "406.8 K", "result": "79.99 ± 0.9", "unit": "kPa"},
      {"measurement": "vapor or sublimation pressure", "setting": "410.33 K", "result": "90.07 ± 0.95", "unit": "kPa"},
      {"measurement": "vapor or sublimation pressure", "setting": "411.97 K", "result": "95.1 ± 0.98", "unit": "kPa"},
      {"measurement": "vapor or sublimation pressure", "setting": "413.74 K", "result": "101.21 ± 1", "unit": "kPa"}
    ]}
  ]
}
